Measurements reported in patent US20180193327A1, “PROPHYLACTIC LEUKOTRIENE INHIBITOR AND IMPLANT DISPLACEMENT THERAPY FOR PREVENTION AND TREATMENT OF CAPSULAR CONTRACTURE IN SILICONE BREAST AUGMENTATION” (priority 2017, published 2018).
Several values for one entry are separate records, joined by “and”; a condition that tells them apart may be missing. Identical values can stand only once. Marks after values point to notes of the source that are not given here.

Experiments:
[1] = FDA post-approval studies for the treatment of asthma; cited from earlier work
[2] = Liver function studies (transaminases) during Accolate therapy after primary augmentation; assay type: in vivo, patients (women)
Protocol: At thirty days postoperatively, blood testing was performed, with a measurement of transaminase levels and liver function studies. The softness of the breast implants as well as the implant movement and position was evaluated to determine if capsular contracture was present. Patients with normal liver function studies were provided two more months of Accolate therapy. At the completion of this, two additional months of treatment, the breasts were evaluated for the presence of capsular contracture. Patients without clinical capsular contracture, Baker I and II, were completed with therapy. Patients with clinical capsular contracture, either Baker III or IV, underwent repeat liver function studies. If transaminase levels were within normal limits, an additional three months of Accolate therapy was prescribed with the continuation of breast implant displacement therapy.
If liver function studies were abnormal and transaminase levels were elevated at any time in the treatment period, Accolate therapy was immediately discontinued and repeat liver function studies were performed every 14 days until normal levels were reached. If applicable, breast implant displacement therapy was continued and patients were offered 800 units-1000 units of Vitamin E daily in lieu of Accolate. Patients undergoing treatment with Accolate were monitored with a blood testing program. Following thirty days of treatment with Accolate, patients underwent liver function studies with evaluation of transaminase enzymes, including SGOT and SGPT, or ALT and AST. Normal ranges of enzyme levels were required to continue Accolate therapy.
All patients receiving Accolate therapy underwent liver function studies four weeks following the initiation of Accolate therapy. […] Follow-up liver function studies were performed at two week intervals, until transaminases normalized. […] Liver function studies were repeated after three months of Accolate therapy for patients choosing to continue Accolate for a six month course.

[3] = Voluntary discontinuation of Accolate after capsulectomy and implant replacement; assay type: in vivo; details: group of 279 patients
Protocol: (§1) Patients were treated with Accolate 20 mg twice daily, beginning the day after surgery. Patients with a history of hepatitis or liver disease were excluded. Patient compliance with the recommended dosage was encouraged, but patients were advised that they could discontinue the medication at any time that they experienced significant side effects. All patients receiving Accolate therapy underwent liver function studies 4 weeks after the initiation of Accolate therapy. […] Follow-up liver function studies were performed at 2-week intervals, until transaminases normalized. […] Liver function studies were repeated after 3 months of Accolate therapy for patients choosing to continue Accolate for a 6-month course.
A total of 447 consecutive patients were evaluated during the study period. A first group of 168 consecutive patients with encapsulated breast implants were studied and no leukotriene inhibitor therapy was offered postoperatively. This included 55 patients with bilateral capsular contracture. […] A second group of 279 consecutive patients with encapsulated breast implants were studied and treated with Accolate, including 87 patients with bilateral capsular contracture. There were 366 breasts with capsular contracture among patients in this group. […] Twelve patients discontinued the use of Accolate voluntarily based on cost or minor side effects and were excluded from the study.

[4] = Side effects and discontinuation reported by patients taking leukotriene inhibitors after primary augmentation; assay type: in vivo, patients (women); details: for Percentage of patients discontinuing the medication because of (minor) side effects or cost: female, 3 months
Protocol: (§2) Patients that were administered Singulair were treated according to the method described in FIGS. 1 and 2 of the present disclosure. First, patients were evaluated clinically to see if they were a candidate for breast augmentation with physical examination and medical history. The medical history review included discussion and review of liver health, current medications, and potential contraindications or drug interactions with leukotriene inhibitors. Patients were then provided an informed consent for the use of Singulair, 10 mg daily. The informed consent reviewed the potential benefits and risks of this medication which is taken as an off-label indication. Breast augmentation was performed with either smooth or textured silicone or saline implants. On the day following surgery, Singulair therapy is initiated, 10 mg QD. In the first week following surgery, the implant displacement therapy protocol was begun for patients with smooth surface silicone implants. The implant displacement therapy protocol may also be performed, if indicated, for patients with mildly textured breast implants, but not with moderately textured or highly textured devices. Monitoring for side effects from Singulair was conducted by educating patients as to the common side effects and discussing with patients noted side effects. Singulair can be discontinued if the side effects are significant. At thirty days postoperatively, the softness of the breast implants as well as the implant movement and position was evaluated to determine if capsular contracture was present. Two more months of Singulair was prescribed. Following three total months of therapy, the breasts were evaluated for the presence of capsular contracture. Patients without clinical capsular contracture, Baker I and II, were completed with therapy. Patients with clinical capsular contracture, either Baker III or IV, were treated with an additional three months of Singulair therapy as prescribed with the continuation of implant displacement therapy protocol. If patients declined to take Singulair or had side effects from the medication, implant displacement therapy protocol was continued and patients were offered 800 units-1000 units of Vitamin E daily in lieu of Singulair.
Patients that were administered Accolate were treated according to the method described in FIGS. 1 and 2 of the present disclosure. First, patients were evaluated clinically to see if they were a candidate for breast augmentation with physical examination and medical history. The medical history review included discussion and review of liver health, current medications, and potential contraindications or drug interactions with leukotriene inhibitors. Patients were then provided an informed consent for the use of Accolate (Zafirlukast), 20 mg twice daily. Patients were counseled to take the medication at least one hour before meals. The informed consent reviews the potential benefits and risks of this medication which is taken as an off-label indication. Breast augmentation was performed with either smooth or textured silicone or saline implants. On the day following surgery, Accolate therapy was initiated, 20 mg BID. In the first week following surgery, the implant displacement therapy protocol was begun for patients with smooth surface silicone implants. The implant displacement therapy protocol may also be performed, if indicated, for patients with mildly textured breast implants, but not with moderately textured or highly textured devices. […]

[5] = system: capsular contracture in patients undergoing primary silicone gel breast augmentation; assay: Capsular contracture (Baker scale) at one year after primary silicone gel breast augmentation, retrospective review; assay type: in vivo, patients (women); details: for % of Patients with Capsular Contracture: one year following primary silicone gel breast augmentation, Baker grade III or IV, three months therapy plus implant displacement protocol
Protocol: The study was performed with a retrospective review of 1122 consecutive women undergoing primary, silicone gel breast augmentation. Over time, the author added leukotriene inhibitor therapy to the postoperative treatment of patients. The first group of patients were treated without leukotriene therapy. Consecutive patients agreeing to the off-label use of leukotriene inhibitors were then studied. The second group of consecutive patients was offered Singulair therapy postoperatively while all other aspects of the surgical technique and care remained the same. Finally, the author offered Accolate therapy to the final group of patients undergoing breast augmentation.
Patients chose augmentation with either a periareolar or inframammary approach. Silicone breast augmentation procedures were performed using a standardized, dual plane technique. All patients were treated with preoperative intravenous antibiotics, either a one-gram dose of cephazolin or 600 mg of clindamycin, selected based on allergy profiles. Prior to insertion of implants, triple-antibioic irrigation (50,000 U bacitracin, 1 g Ancef, 80 mg gentamicin) with the addition of 50 ml of povidone-iodine in 500 ml of normal saline was utilized. All implants were placed with power-free glove changes, and inserted through a skin barrier/nipple shield using Tegaderm dressings. The implant displacement therapy protocol was initiated on post-operative day two.
as §2
Patients that were administered Accolate were treated according to the method described in FIGS. 1 and 2 of the present disclosure. First, patients were evaluated clinically to see if they were a candidate for breast augmentation with physical examination and medical history. […]

[6] = system: capsular contracture in patients undergoing capsulectomy and silicone implant replacement; assay: Recurrence of capsular contracture (Baker scale) at one year after capsulectomy and silicone implant replacement; assay type: in vivo
Protocol: The study was performed with patients undergoing primary capsulectomy and silicone implant replacement for grade III and IV capsular contracture according to the methods depicted in FIGS. 3 and 4 of the present disclosure. […] Patients with a history of subglandular breast augmentation or those who underwent concurrent mastopexy revision or replacement with textured silicone breast implants were not included in the study. Enrolled patients underwent surgery with either an inframammary or periareolar incision.
One group of patients underwent capsulectomy and implant replacement without the use of leukotriene inhibitors. Another group of patients agreed to the off-label use of zafirlukast (Accolate; AstraZeneca Pharmaceuticals, Wilmington, Del.) and were treated beginning the day following the capsulectomy and implant replacement procedure. All patients were between the ages of 22 and 60 years of age and consented to the use of Mentor Memory Gel silicone gel breast implants with a smooth surface (Mentor Worldwide, Irvine, Calif.) and the off-label use of triple-antibiotic irrigation containing povidone-iodine (Betadine; Purdue Frederick Co., Norwalk, Conn.). In addition, a detailed informed consent was provided for the off-label use of Accolate. All patients were adequately informed of the risks, potential unknown benefits, cost, and potential side effects of leukotriene therapy with both verbal and written consent. Patients were informed that taking Accolate was voluntary and that they could discontinue this medication at any time for any reason.
Patients undergoing capsulectory and re-augmentation were treated with the incision initially used by the original surgeon, with either an inframmary or periareolar approach. All patients were surgically treated with complete periprosthetic capsulectomy. Patients were also treated with preoperative intravenous antibiotics, either a 1-g dose of cephazolin or 600 mg of clindamycin, selected based on allergy profiles. Before insertion of implants, triple-antibiotic irrigation [50,000 U of bacitracin, 1 g of Ancef (GlaxoSmithKline, Middlesex, United Kingdom), and 80 mg of gentamicin] with the addition of 50 ml of povidone-iodine in 500 ml of normal saline was used.
Hemovac ⅛ inch drains (Medline Industries, Rialto, Calif.) were used on all breasts receiving capsulectomy. All implants were placed with powder-free glove changes and inserted through a skin barrier/nipple shield using Tegaderm (3M, St. Paul, Minn.) dressings. Drains were left in place until drainage from one breast reached 30 ml/24 hrs, or 60 ml/24 hrs if both breasts were treated. The implant displacement therapy protocol was initiated two days after drains were removed.
as §1
All patients were evaluated at frequent follow-up appointments, including early postoperative visits, 1 month, 3 months, 6 months, and 1 year postoperatively. Capsular contracture was evaluated by the Baker scale. Patients with grade III or IV capsular contractures were considered as having clinical capsular contracture. Each patient was considered based on the number of their breasts associated with clinical capsular contracture ranging from none to two breasts. […]

[7] = Liver function studies (transaminases) during Accolate therapy after capsulectomy and implant replacement; assay type: in vivo; details: at one month postoperatively; group of 279 patients, 20 mg twice daily
Protocol: as §1

[8] = one year following silicone gel breast augmentation
[9] = one year following silicone gel breast augmentation, patients with contracture/patients followed
[10] = preoperative Grade III (172 breasts)
[11] = preoperative Grade IV (194 breasts)
[12] = preoperative Total III/IV (366 breasts)

SMILES: COc1cc(C(=O)NS(=O)(=O)c2ccccc2C)ccc1Cc1cn(C)c2ccc(NC(=O)OC3CCCC3)cc12 [Accolate, Zafirlukast]
- Potential significant (uncommon) risks reported [1]: chemical hepatitis, liver failure, and even death
- Percentage of patients with (mild) elevation of transaminases ([2]; at 30 days of treatment, 20 mg bid, medication discontinued): 0.58%
- Number of patients with (mild) elevation of transaminases ([2]; at 30 days of treatment, out of 520 treated): Three and 3/520
- Time for transaminases to return to normal after discontinuing the medication ([2]; two patients within two weeks, one patient within four weeks): four
- Number of patients who discontinued voluntarily based on cost or minor side effects [3]: Twelve
- Percentage of patients discontinuing the medication because of (minor) side effects or cost ([4]; human, in vivo): 6.2%
- Irreversible side effects noted in the study ([4]; human, in vivo): no irreversible side effects
- Patients who tolerated the medication well ([4]; primary augmentation study): ~95%
- Reduction of the encapsulation risk ([5]; addition of the drug in the first three months following augmentation, versus no leukotriene inhibitor): over 50%
- % of Patients with Capsular Contracture [5]: 2.19%*
- Percentage of patients demonstrating capsular contracture, inframammary incision [5, 8]: 1.74%
- Percentage of patients demonstrating capsular contracture, periareolar incision [5, 8]: 2.31% and 2.38%
- Percentage of patients demonstrating capsular contracture, total (both incisions) [5, 8]: 2.19%
- Number of patients demonstrating capsular contracture, inframammary incision [5, 9]: 2/115
- Number of patients demonstrating capsular contracture, total (both incisions) [5, 9]: 8/375
- Number of patients with grade III/IV capsular contracture at three months that improved to grade II with an additional three months of therapy ([5]; primary augmentation, six months of therapy in total): five
- Capsular contracture rate compared with patients not treated with leukotriene inhibitors ([5]; three months of therapy after primary augmentation, result in words): significantly lower
- Number of breasts with capsular contracture, postoperative Grade III [6, 10]: 7
- Number of breasts with capsular contracture, postoperative Grade IV [6, 10]: 2
- Number of breasts with capsular contracture, postoperative Total [6, 10]: 9
- Percent of breasts with capsular contracture, postoperative Grade III [6, 10]: 4.1%
- Percent of breasts with capsular contracture, postoperative Grade IV [6, 10]: 1.2%
- Percent of breasts with capsular contracture, postoperative Total [6, 10]: 5.3%
- Number of breasts with capsular contracture, postoperative Grade III [6, 11]: 15
- Number of breasts with capsular contracture, postoperative Grade IV [6, 11]: 5
- Number of breasts with capsular contracture, postoperative Total [6, 11]: 20
- Percent of breasts with capsular contracture, postoperative Grade III [6, 11]: 7.8%
- Percent of breasts with capsular contracture, postoperative Grade IV [6, 11]: 2.6%
- Percent of breasts with capsular contracture, postoperative Total [6, 11]: 10.3%
- Number of breasts with capsular contracture, postoperative Grade III [6, 12]: 22
- Number of breasts with capsular contracture, postoperative Grade IV [6, 12]: 7
- Number of breasts with capsular contracture, postoperative Total [6, 12]: 29
- Percent of breasts with capsular contracture, postoperative Grade III [6, 12]: 6.0%
- Percent of breasts with capsular contracture, postoperative Grade IV [6, 12]: 1.9%
- Percent of breasts with capsular contracture, postoperative Total [6, 12]: 7.9%
- Number of patients with (mild) elevation of transaminases [7]: Two

SMILES: CC(C)(O)c1ccccc1CC[C@@H](SCC1(CC(=O)O)CC1)c1cccc(/C=C/c2ccc3ccc(Cl)cc3n2)c1 [Singulair, Montelukast]
- Percentage of patients discontinuing the medication because of (minor) side effects or cost ([4]; human, in vivo): 2.5%
- Common side effects reported by patients ([4]; human, in vivo): headache, GI symptoms, fatigue, rash
- % of Patients with Capsular Contracture [5]: 3.27%
- Percentage of patients demonstrating capsular contracture, inframammary incision [5, 8]: 2.08%
- Percentage of patients demonstrating capsular contracture, periareolar incision [5, 8]: 3.81%
- Percentage of patients demonstrating capsular contracture, total (both incisions) [5, 8]: 3.27%
